Laboratory results taken from paper PMC4447944 (The Journal of Biological Chemistry, 2015).

Columns and labels:
hKIT = target: T1, hKIT (Homo sapiens, UniProt P10721); test: KINOMEscan; type: binding
T1 construct: purchased DiscoverX (KINOMEscan panel)

hBIKE = target: T2, hBIKE (Homo sapiens, UniProt Q9NSY1); test: KINOMEscan; type: binding
T2 construct: purchased DiscoverX

hOPRm1 = hOPRm1 (Homo sapiens, UniProt P35372); test: cAMP Potentiation (Eurofins-CEREP); settings: @ 1 μM
hAKT2 = target: T3, hAKT2 (Homo sapiens, UniProt P31751); test: KINOMEscan; type: binding
T3 construct: purchased DiscoverX

hFLT3(N841I) = target: T4, hFLT3(N841I) (Homo sapiens, UniProt P36888, N841I); test: KINOMEscan; type: binding
T4 construct: purchased DiscoverX

hTRKA = target: T5, hTRKA (Homo sapiens, UniProt P04629); test: KINOMEscan; type: binding
T5 construct: purchased DiscoverX

hYANK3 = target: T6, hYANK3 (Homo sapiens, UniProt Q86UX6); test: KINOMEscan; type: binding
T6 construct: purchased DiscoverX

hTRα1 = target: T7, hTRα1 (Homo sapiens, UniProt P10827); test: Nuclear hormone receptor assay (Eurofins-CEREP); settings: read-out: Relative IC50
T7 construct: Eurofins-CEREP

hCHEK1 = target: T8, hCHEK1 (Homo sapiens, UniProt O14757); test: KINOMEscan; type: binding
T8 construct: purchased DiscoverX

hMAP3K3 = target: T9, hMAP3K3 (Homo sapiens, UniProt Q99759); test: KINOMEscan; type: binding
T9 construct: purchased DiscoverX (KINOMEscan platform)

hM3 = hM3 (Homo sapiens, UniProt P20309); test: Calcium Mobilization Potentiation (Eurofins-CEREP); settings: @ 10 μM
hIKK-beta = target: T10, hIKK-beta (Homo sapiens, UniProt O14920); test: KINOMEscan; type: binding
T10 construct: purchased DiscoverX (KINOMEscan panel)

hKIT(D816V) = target: T11, hKIT(D816V) (Homo sapiens, UniProt P10721, D816V); test: KINOMEscan; type: binding
T11 construct: purchased DiscoverX (KINOMEscan panel)

hMEK1 = target: T12, hMEK1 (Homo sapiens, UniProt Q02750); test: KINOMEscan; type: binding
T12 construct: purchased DiscoverX

hTAK1 = target: T13, hTAK1 (Homo sapiens, UniProt O43318); test: KINOMEscan; type: binding
T13 construct: purchased DiscoverX

hMET(Y1235D) = target: T14, hMET(Y1235D) (Homo sapiens, UniProt P08581, Y1235D); test: KINOMEscan; type: binding
T14 construct: purchased DiscoverX

hMAP3K1 = target: T15, hMAP3K1 (Homo sapiens, UniProt Q13233); test: KINOMEscan; type: binding
T15 construct: purchased DiscoverX (KINOMEscan platform)

hERBB3 = target: T16, hERBB3 (Homo sapiens, UniProt P21860); test: KINOMEscan; type: binding
T16 construct: purchased DiscoverX

hMELK = target: T17, hMELK (Homo sapiens, UniProt Q14680); test: KINOMEscan; type: binding
T17 construct: purchased DiscoverX

hEGFR = target: T18, hEGFR (Homo sapiens, UniProt P00533); test: KINOMEscan; type: binding
T18 construct: purchased DiscoverX

hDDR1 = target: T19, hDDR1 (Homo sapiens, UniProt Q08345); test: KINOMEscan; type: binding
T19 construct: purchased DiscoverX (KINOMEscan platform)

hTYK2(JH1Dom.-catalytic) = target: T20, hTYK2(JH1Dom.-catalytic) (Homo sapiens, UniProt P29597); test: KINOMEscan; type: binding
T20 construct: hTYK2(JH1Dom.-catalytic); purchased DiscoverX

hSTK16 = target: T21, hSTK16 (Homo sapiens, UniProt O75716); test: KINOMEscan; type: binding
T21 construct: purchased DiscoverX (KINOMEscan platform)

hABL1-p = target: T22, hABL1-p (Homo sapiens, UniProt P00519); test: KINOMEscan; type: binding
T22 construct: purchased DiscoverX (KINOMEscan platform)

hASK1 = target: T23, hASK1 (Homo sapiens, UniProt Q99683); test: KINOMEscan; type: binding
T23 construct: purchased DiscoverX

hHUNK = target: T24, hHUNK (Homo sapiens, UniProt P57058); test: KINOMEscan; type: binding
T24 construct: purchased DiscoverX (KINOMEscan panel)

hANKK1 = target: T25, hANKK1 (Homo sapiens, UniProt Q8NFD2); test: KINOMEscan; type: binding
T25 construct: purchased DiscoverX

hABL1(pY253F) = target: T26, hABL1(pY253F) (Homo sapiens, UniProt P00519, Y253F); test: KINOMEscan; type: binding
T26 construct: purchased DiscoverX (KINOMEscan platform)

hMAP4K2 = target: T27, hMAP4K2 (Homo sapiens, UniProt Q12851); test: KINOMEscan; type: binding
T27 construct: purchased DiscoverX (KINOMEscan platform)

hABL1(Q252H) = target: T28, hABL1(Q252H) (Homo sapiens, UniProt P00519, Q252H); test: KINOMEscan; type: binding
T28 construct: purchased DiscoverX (KINOMEscan platform)

hBRSK2 = target: T29, hBRSK2 (Homo sapiens, UniProt Q8IWQ3); test: KINOMEscan; type: binding
T29 construct: purchased DiscoverX

hGAK = target: T30, hGAK (Homo sapiens, UniProt O14976); test: KINOMEscan; type: binding
T30 construct: purchased DiscoverX

hYSK1 = target: T31, hYSK1 (Homo sapiens, UniProt O00506); test: KINOMEscan; type: binding
T31 construct: purchased DiscoverX

hSGK = target: T32, hSGK (Homo sapiens, UniProt O00141); test: KINOMEscan; type: binding
T32 construct: purchased DiscoverX (KINOMEscan platform)

hFYN = target: T33, hFYN (Homo sapiens, UniProt P06241); test: KINOMEscan; type: binding
T33 construct: purchased DiscoverX

hTIE1 = target: T34, hTIE1 (Homo sapiens, UniProt P35590); test: KINOMEscan; type: binding
T34 construct: purchased DiscoverX

hEGFR(G719C) = target: T35, hEGFR(G719C) (Homo sapiens, UniProt P00533, G719C); test: KINOMEscan; type: binding
T35 construct: purchased DiscoverX

hAMPK-alpha2 = target: T36, hAMPK-alpha2 (Homo sapiens, UniProt P54646); test: KINOMEscan; type: binding
T36 construct: purchased DiscoverX

hMKNK1 = target: T37, hMKNK1 (Homo sapiens, UniProt Q9BUB5); test: KINOMEscan; type: binding
T37 construct: purchased DiscoverX

hMERTK = target: T38, hMERTK (Homo sapiens, UniProt Q12866); test: KINOMEscan; type: binding
T38 construct: purchased DiscoverX

hMEK5 = target: T39, hMEK5 (Homo sapiens, UniProt Q13163); test: KINOMEscan; type: binding
T39 construct: purchased DiscoverX

hTRβ1 = target: T40, hTRβ1 (Homo sapiens, UniProt P10828); test: Nuclear hormone receptor assay (Eurofins-CEREP); settings: read-out: Relative IC50
T40 construct: Eurofins-CEREP
T40 sequence (P10828 whole entry): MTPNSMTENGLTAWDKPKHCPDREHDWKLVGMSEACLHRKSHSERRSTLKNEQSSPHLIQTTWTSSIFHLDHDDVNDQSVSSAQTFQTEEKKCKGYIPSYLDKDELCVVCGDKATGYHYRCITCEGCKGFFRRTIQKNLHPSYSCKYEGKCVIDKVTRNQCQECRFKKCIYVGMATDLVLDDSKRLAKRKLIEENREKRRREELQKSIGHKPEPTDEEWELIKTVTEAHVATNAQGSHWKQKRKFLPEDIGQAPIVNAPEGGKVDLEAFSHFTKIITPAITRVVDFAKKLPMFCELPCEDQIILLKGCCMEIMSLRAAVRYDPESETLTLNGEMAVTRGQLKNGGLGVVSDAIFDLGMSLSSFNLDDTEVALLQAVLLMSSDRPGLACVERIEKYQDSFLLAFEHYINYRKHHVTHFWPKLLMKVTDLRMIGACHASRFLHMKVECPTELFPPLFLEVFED

Chain of hOPRm1 (P35372 whole entry): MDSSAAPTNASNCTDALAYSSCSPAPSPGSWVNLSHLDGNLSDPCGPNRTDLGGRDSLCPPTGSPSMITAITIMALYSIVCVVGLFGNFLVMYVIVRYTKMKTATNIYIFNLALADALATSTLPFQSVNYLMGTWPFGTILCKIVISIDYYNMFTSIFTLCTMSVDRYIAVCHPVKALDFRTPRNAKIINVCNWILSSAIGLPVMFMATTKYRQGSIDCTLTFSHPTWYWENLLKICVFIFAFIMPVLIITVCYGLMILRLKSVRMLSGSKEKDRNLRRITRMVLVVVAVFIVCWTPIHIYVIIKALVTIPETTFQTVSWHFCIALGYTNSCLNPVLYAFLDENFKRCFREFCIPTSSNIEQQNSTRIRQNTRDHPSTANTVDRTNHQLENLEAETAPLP
T11 sequence (P10721 26-976 D816V): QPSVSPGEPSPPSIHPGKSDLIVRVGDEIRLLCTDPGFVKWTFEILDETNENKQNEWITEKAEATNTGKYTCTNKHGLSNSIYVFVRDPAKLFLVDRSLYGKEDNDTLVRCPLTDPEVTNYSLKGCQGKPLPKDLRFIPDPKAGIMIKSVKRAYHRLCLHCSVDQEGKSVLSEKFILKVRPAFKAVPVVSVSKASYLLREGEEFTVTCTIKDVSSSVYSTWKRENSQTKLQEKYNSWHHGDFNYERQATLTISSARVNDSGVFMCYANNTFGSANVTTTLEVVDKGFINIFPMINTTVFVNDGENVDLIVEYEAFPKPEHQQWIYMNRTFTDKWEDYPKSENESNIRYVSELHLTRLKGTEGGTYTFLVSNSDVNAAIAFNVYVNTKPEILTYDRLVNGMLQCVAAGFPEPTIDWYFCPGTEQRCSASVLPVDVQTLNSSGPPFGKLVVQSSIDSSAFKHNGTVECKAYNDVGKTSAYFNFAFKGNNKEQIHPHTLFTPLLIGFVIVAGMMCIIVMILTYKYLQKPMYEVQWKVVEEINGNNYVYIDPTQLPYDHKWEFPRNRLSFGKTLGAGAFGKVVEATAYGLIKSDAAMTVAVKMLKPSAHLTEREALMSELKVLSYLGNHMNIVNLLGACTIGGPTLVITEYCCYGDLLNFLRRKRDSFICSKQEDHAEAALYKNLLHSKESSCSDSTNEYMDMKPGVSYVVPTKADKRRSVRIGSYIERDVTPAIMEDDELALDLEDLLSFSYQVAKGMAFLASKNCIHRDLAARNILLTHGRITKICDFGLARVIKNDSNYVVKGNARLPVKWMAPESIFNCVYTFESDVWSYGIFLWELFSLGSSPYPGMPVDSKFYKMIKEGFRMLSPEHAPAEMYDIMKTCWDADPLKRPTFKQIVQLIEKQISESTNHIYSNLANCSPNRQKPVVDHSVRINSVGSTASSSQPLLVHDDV
T1 sequence (P10721 26-976): as the sequence (P10721 26-976 D816V) above, with V791D counted along it
T35 sequence (P00533 25-1210 G719C): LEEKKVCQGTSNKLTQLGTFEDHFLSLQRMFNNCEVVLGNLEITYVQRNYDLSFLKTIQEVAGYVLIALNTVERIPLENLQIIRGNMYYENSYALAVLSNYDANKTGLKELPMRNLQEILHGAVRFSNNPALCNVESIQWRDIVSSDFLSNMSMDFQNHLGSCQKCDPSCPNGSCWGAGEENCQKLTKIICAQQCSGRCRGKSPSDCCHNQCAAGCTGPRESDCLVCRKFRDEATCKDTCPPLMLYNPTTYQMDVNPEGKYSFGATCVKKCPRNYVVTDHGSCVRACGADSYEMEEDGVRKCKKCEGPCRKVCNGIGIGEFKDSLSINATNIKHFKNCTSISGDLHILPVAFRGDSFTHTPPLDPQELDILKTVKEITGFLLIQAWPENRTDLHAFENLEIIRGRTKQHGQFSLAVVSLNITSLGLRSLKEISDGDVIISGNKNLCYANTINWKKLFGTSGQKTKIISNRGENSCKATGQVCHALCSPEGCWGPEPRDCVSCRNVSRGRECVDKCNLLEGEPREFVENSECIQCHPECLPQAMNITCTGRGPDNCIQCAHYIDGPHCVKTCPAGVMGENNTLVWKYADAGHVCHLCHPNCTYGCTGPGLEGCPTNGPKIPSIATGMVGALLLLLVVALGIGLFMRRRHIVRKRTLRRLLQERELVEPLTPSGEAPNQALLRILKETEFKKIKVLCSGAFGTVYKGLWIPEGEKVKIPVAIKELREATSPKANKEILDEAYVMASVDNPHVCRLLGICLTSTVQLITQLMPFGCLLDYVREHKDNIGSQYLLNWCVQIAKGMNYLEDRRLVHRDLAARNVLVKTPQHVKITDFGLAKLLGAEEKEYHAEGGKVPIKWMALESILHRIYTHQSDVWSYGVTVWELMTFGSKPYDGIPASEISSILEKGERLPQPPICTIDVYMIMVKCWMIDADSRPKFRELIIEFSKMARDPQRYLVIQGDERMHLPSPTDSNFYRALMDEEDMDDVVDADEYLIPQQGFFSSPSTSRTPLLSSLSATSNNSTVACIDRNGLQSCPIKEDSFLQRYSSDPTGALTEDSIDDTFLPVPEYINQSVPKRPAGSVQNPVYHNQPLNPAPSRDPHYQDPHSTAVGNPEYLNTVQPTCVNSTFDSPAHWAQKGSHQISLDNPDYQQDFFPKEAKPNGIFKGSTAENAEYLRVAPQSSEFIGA
T20 sequence (P29597 897-1176 limits assumed): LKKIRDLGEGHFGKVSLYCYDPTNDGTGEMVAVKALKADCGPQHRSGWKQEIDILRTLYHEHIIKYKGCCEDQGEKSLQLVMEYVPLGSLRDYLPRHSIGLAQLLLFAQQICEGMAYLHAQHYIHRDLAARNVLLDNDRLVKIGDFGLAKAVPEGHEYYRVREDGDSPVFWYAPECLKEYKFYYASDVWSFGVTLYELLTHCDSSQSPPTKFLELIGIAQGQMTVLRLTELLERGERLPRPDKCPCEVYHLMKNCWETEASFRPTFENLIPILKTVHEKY
T16 sequence (P21860 20-1342): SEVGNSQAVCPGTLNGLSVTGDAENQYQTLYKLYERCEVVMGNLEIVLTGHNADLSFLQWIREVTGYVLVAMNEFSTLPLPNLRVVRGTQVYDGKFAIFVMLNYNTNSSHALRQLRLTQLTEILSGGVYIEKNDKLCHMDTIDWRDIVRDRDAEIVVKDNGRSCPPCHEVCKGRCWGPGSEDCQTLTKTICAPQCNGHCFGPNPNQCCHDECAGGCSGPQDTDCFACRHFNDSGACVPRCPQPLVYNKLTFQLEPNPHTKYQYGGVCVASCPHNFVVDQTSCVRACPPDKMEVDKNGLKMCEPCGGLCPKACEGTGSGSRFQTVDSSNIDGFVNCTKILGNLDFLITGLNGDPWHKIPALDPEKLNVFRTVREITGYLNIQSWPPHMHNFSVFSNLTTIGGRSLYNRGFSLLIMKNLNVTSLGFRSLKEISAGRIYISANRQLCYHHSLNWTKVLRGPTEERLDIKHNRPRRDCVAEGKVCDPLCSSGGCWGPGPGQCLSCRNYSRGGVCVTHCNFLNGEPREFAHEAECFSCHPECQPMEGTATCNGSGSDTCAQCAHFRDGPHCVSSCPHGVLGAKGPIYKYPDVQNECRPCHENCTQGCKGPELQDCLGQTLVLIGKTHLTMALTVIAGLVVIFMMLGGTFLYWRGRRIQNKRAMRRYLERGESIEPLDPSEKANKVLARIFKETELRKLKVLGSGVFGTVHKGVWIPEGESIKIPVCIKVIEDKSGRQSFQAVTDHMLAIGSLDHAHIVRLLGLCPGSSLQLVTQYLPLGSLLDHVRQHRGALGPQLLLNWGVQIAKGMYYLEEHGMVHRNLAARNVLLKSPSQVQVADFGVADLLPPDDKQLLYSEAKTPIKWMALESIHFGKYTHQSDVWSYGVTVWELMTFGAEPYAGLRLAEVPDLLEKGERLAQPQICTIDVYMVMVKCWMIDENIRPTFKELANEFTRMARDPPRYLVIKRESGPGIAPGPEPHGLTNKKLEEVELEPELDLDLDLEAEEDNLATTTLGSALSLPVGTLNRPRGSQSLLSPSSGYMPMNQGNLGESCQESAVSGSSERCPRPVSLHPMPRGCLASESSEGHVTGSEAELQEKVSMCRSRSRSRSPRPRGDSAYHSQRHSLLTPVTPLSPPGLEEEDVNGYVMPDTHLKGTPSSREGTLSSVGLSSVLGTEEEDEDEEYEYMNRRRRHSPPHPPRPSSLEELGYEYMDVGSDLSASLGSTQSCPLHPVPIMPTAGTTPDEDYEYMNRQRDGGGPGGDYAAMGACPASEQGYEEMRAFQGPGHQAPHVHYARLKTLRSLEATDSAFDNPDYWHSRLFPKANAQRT
T21 sequence (O75716 whole entry): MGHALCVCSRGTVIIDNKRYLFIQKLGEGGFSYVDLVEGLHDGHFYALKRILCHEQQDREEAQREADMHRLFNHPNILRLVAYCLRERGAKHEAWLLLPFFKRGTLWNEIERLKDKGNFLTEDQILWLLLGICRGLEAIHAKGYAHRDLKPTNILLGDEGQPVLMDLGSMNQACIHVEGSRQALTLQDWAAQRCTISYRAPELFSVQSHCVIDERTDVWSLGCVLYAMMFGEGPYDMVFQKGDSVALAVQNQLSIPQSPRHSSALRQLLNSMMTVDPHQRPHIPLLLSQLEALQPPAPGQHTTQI

## Cc1cn(CCN2CCN(c3ccccc3-c3cc(C#N)cc(C(=O)NCCCN4CCCC4)c3)CC2)c2ccccc12 [LLY-507, 3-cyano-5-{2-[4-[2-(3-methylindol-1-yl)ethyl]piperazin-1-yl]-phenyl}-N-[(3-pyrrolidin-1-yl)propyl]benzamide]
hKIT
  IC50: > 20 µM
hBIKE
  IC50: > 20 µM
hOPRm1
  % Effect, Potentiation: 9.6%
hAKT2
  IC50: > 20 µM
hFLT3(N841I)
  IC50: > 20 µM
hTRKA
  IC50: > 20 µM
hYANK3
  IC50: > 20 µM
hTRα1
  IC50: > 10 µM
hCHEK1
  IC50: > 20 µM
hMAP3K3
  IC50: > 20 µM
hM3
  % Effect, Potentiation: -18%
hIKK-beta
  IC50: > 20 µM
hKIT(D816V)
  IC50: > 20 µM
hMEK1
  IC50: > 20 µM
hTAK1
  IC50: > 20 µM
hMET(Y1235D)
  IC50: > 20 µM
hMAP3K1
  IC50: > 20 µM
hERBB3
  IC50: > 20 µM
hMELK
  IC50: > 20 µM
hEGFR
  IC50: > 20 µM
hDDR1
  IC50: > 20 µM
hTYK2(JH1Dom.-catalytic)
  IC50: > 20 µM
hSTK16
  IC50: > 20 µM
hABL1-p
  IC50: > 20 µM
hASK1
  IC50: > 20 µM
hHUNK
  IC50: > 20 µM
hANKK1
  IC50: > 20 µM
hABL1(pY253F)
  IC50: > 20 µM
hMAP4K2
  IC50: > 20 µM
hABL1(Q252H)
  IC50: > 20 µM
hBRSK2
  IC50: > 20 µM
hGAK
  IC50: > 20 µM
hYSK1
  IC50: > 20 µM
hSGK
  IC50: > 20 µM
hFYN
  IC50: > 20 µM
hTIE1
  IC50: > 20 µM
hEGFR(G719C)
  IC50: > 20 µM
hAMPK-alpha2
  IC50: > 20 µM
hMKNK1
  IC50: > 20 µM
hMERTK
  IC50: > 20 µM
hMEK5
  IC50: > 20 µM
hTRβ1
  IC50: > 10 µM
